In patent publication US10130634B2, “Therapeutic agent for ophthalmic disease” (MITSUBISHI TANABE PHARMA CORPORATION, priority 2013, dated 2018):

System: choroidal neovascularization (CNV)
Assay: laser irradiation-induced choroidal neovascularization mouse model (CNV model)
Type: in vivo, male C57BL/6J mouse
Conditions: oral 20 mg/kg, once on laser-induction day then twice per day; compared to vehicle (0.5% hydroxypropylmethylcellulose) oral group; t-test p<0.05; FIG. 1
Procedure: As a result, VEGF is produced, and a new blood vessel is developed. Therefore, the CNV model is an experimental model showing the efficacy on a disease associated with ocular angiogenesis via VEGF.
Using (2S)-[4-(carboxymethyl)thiazol-2-ylthio]-N-{[4-(3,4-dichlorobenzyl)morpholin-2-yl]methyl}acetamide hydrobromide as a test compound, the following experiment was performed.
Laser was irradiated (6 spot irradiation) on one eye of male C57BL/6J mouse (7-week-old) to experimentally induce CNV.
The mouse was intramuscularly administered (1 mL/kg) with a ketamine hydrochloride/xylazine hydrochloride (1:1, v/v) mixed solution into the thigh and, after systemic anesthesia, mydriasis was induced with mydriatic eye drops, and laser irradiation (wavelength 532 nm, spot size 50 μm, irradiation time 0.1 second, laser output 120 mW) was performed at 6 points while avoiding thick capillary in the retina. […]
At 7 days from the laser irradiation, under systemic anesthesia by intramuscular administration (1 mL/kg) of a ketamine hydrochloride/xylazine hydrochloride (1:1, v/v) mixed solution into the thigh, a 4% FITC-dextran solution was administered at 0.5 mL/animal from the tail vein. […] Using a confocal microscope (OLYMPUS FV-1000D; magnification: ×20, number of pixels: 512 pixel×512 pixel), CNV site in a flat mount specimen was photographed, and measured using an image analysis software (NIH ImageJ). […]

Br.O=C(O)Cc1csc(SCC(=O)NC[C@H]2CN(Cc3ccc(Cl)c(Cl)c3)CCO2)n1 [test compound, (2S)-[4-(carboxymethyl)thiazol-2-ylthio]-N-{[4-(3,4-dichlorobenzyl)morpholin-2-yl]methyl}acetamide hydrobromide]
CNV area after 7 days from laser irradiation (CNV suppressive effect): significant CNV suppressive effect
